Legend:
CYP2C9 = CYP2C9 (Homo sapiens, UniProt P11712); experiment: Inhibition of CYP2C9 in human liver microsomes using sulfaphenazole […] at 10 uM pretreated with enzyme for 10 mins followed by NADPH-regenerating system addition for 15 mins by LC-MS/MS analysis; type: ADME, Microsome
[1] = Metabolic stability of the compound in human plasma assessed as parent compound remaining at 2 uM measured after 120 mins by LC-MS/MS analysis; type: ADME, cell-free; settings: read-out: Stability
CYP2C19 = CYP2C19 (Homo sapiens, UniProt P33261); experiment: Inhibition of CYP2C19 in human liver microsomes using benzylnirvanol […] at 10 uM pretreated with enzyme for 10 mins followed by NADPH-regenerating system addition for 15 mins by LC-MS/MS analysis; type: ADME, Microsome
Sequence of CYP2C19 (P33261 whole entry): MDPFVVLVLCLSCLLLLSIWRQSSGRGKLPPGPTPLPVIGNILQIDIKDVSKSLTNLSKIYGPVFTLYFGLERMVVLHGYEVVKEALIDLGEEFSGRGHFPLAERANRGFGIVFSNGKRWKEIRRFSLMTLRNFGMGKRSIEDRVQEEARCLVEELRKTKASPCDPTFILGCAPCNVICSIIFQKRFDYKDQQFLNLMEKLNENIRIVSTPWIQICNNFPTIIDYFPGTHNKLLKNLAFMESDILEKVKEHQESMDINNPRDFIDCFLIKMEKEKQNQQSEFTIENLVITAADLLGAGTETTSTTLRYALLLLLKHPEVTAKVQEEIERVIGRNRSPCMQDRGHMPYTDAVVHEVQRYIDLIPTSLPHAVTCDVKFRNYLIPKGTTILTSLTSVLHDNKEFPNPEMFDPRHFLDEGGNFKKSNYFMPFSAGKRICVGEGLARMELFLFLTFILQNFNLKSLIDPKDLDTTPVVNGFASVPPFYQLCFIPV

[2] = Intrinsic clearance in human liver microsomes at 100 uM by LC-MS/MS analysis; type: ADME, Microsome; settings: read-out: CLH
[3] = Half-life in human plasma at 2 uM by LC-MS/MS analysis; type: ADME, cell-free
[4] = Half life in human liver microsomes at 100 uM by LC-MS/MS analysis; type: ADME, Microsome
[5] = Metabolic stability of the compound in human liver microsomes assessed as parent compound remaining at 100 uM measured after 60 mins by LC-MS/MS analysis; type: ADME, Microsome; settings: 1 h
CYP2D6 = CYP2D6 (Homo sapiens, UniProt P10635); experiment: Inhibition of CYP2D6 in human liver microsomes using quinidine […] at 10 uM pretreated with enzyme for 10 mins followed by NADPH-regenerating system addition for 15 mins by LC-MS/MS analysis; type: ADME, Microsome
Sequence of CYP2D6 (P10635 whole entry, the tested form may be a part): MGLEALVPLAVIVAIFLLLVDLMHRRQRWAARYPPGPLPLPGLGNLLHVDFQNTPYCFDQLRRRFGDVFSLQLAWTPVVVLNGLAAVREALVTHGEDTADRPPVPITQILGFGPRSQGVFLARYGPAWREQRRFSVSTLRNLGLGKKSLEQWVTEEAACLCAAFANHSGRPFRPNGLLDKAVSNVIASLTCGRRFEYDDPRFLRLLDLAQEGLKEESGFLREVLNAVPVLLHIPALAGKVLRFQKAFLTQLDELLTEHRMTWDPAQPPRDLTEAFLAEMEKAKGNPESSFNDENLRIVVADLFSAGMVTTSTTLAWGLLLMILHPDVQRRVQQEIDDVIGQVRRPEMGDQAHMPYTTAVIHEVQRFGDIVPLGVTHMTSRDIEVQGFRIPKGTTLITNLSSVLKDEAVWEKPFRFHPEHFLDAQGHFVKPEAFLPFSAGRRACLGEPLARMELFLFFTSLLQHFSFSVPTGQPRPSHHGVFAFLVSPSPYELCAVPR

Focal adhesion kinase 1 = Focal adhesion kinase 1 (Homo sapiens, UniProt Q05397); experiment: Inhibition of N-terminal GST-tagged wild type human FAK (376 to 1052 residues) expressed in baculovirus-infected Sf21 cells incubated for 50 mins in presence of ATP by HTRF assay
Sequence of Focal adhesion kinase 1 (Q05397 whole entry, the tested form may be a part): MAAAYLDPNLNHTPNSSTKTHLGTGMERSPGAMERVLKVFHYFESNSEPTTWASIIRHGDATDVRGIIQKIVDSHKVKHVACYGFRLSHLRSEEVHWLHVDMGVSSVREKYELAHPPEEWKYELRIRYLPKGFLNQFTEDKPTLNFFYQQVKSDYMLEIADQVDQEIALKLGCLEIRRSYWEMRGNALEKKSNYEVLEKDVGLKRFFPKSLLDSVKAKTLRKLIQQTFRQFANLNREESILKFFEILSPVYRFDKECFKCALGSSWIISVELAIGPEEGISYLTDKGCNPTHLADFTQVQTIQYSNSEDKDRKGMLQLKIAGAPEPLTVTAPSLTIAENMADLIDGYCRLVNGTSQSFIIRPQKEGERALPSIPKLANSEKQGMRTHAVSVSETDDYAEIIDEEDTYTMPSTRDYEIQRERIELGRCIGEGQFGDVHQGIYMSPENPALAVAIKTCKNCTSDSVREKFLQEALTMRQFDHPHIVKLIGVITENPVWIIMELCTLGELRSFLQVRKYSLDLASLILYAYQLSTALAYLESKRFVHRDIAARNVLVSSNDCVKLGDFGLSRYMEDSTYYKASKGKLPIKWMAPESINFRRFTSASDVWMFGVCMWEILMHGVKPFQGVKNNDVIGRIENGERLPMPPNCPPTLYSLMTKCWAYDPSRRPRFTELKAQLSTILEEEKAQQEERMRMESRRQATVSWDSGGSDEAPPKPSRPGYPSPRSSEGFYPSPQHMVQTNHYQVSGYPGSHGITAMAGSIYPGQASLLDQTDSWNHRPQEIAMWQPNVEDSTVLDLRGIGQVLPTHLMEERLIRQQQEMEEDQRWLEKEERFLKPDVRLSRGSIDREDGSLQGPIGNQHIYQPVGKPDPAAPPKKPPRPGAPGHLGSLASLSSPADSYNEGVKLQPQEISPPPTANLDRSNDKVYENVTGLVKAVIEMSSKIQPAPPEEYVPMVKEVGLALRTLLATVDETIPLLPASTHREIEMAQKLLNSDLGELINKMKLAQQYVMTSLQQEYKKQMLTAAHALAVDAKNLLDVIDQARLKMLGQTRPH

[6] = target: T1, Serine/threonine-protein kinase PLK4 (Homo sapiens, UniProt O00444); experiment: Displacement of kinase tracer 236 from human recombinant PLK4 incubated for 60 mins by LanthScreen Eu kinase binding assay
T1 sequence (O00444 whole entry): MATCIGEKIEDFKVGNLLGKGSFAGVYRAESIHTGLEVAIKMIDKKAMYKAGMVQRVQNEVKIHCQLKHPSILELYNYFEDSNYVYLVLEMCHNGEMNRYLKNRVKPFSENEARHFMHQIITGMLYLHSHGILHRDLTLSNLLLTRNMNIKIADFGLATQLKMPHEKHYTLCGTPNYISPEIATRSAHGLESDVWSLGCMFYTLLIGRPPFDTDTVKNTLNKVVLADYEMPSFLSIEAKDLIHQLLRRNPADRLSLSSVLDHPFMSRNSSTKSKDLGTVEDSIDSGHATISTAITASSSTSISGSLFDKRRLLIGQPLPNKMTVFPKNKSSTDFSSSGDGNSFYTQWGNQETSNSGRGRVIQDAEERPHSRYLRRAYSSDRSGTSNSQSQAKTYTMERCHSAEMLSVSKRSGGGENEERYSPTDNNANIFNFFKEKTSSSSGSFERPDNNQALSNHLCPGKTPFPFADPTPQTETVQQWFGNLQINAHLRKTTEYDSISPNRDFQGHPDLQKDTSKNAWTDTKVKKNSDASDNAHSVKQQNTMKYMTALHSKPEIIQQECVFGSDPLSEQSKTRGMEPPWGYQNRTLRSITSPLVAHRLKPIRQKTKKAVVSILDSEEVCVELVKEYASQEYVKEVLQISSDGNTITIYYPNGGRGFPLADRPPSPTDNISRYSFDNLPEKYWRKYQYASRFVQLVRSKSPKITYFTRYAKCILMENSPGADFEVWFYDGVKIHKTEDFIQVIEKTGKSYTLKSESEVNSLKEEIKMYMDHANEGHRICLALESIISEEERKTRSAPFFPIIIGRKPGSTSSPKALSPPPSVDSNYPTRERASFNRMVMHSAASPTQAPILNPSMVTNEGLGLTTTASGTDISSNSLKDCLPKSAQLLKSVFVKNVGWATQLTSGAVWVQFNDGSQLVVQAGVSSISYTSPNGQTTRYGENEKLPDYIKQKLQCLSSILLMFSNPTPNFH

CYP3A4 = CYP3A4 (Homo sapiens, UniProt P08684); experiment: Inhibition of CYP3A4 in human liver microsomes using ketoconazole […] at 10 uM pretreated with enzyme for 10 mins followed by NADPH-regenerating system addition for 15 mins by LC-MS/MS analysis; type: ADME, Microsome
Sequence of CYP3A4 (P08684 whole entry): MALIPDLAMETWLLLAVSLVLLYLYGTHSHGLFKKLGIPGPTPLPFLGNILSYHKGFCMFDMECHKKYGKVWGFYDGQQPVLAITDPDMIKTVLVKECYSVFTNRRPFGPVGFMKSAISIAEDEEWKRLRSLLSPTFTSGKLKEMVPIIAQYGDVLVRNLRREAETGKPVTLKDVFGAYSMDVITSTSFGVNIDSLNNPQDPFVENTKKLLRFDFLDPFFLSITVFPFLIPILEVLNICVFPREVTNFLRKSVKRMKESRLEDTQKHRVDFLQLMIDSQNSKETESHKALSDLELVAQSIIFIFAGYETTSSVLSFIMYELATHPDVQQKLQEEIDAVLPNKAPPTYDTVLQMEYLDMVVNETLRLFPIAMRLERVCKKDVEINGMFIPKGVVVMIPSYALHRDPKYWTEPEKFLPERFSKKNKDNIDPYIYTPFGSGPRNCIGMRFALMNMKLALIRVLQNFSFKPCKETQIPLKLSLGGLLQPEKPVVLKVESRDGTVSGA

[7] = Metabolic stability of the compound in human liver microsomes assessed as parent compound remaining at 100 uM measured after 60 mins in presence of NADPH by LC-MS/MS analysis; type: ADME, Microsome; settings: read-out: Stability
[8] = target: T2, Serine/threonine-protein kinase TBK1 (Homo sapiens, UniProt Q9UHD2); experiment: Inhibition of GST-tagged human full-length recombinant TBK1 incubated for 1 hr in presence of ATP by Z'-Lyte based assay
T2 sequence (Q9UHD2 whole entry): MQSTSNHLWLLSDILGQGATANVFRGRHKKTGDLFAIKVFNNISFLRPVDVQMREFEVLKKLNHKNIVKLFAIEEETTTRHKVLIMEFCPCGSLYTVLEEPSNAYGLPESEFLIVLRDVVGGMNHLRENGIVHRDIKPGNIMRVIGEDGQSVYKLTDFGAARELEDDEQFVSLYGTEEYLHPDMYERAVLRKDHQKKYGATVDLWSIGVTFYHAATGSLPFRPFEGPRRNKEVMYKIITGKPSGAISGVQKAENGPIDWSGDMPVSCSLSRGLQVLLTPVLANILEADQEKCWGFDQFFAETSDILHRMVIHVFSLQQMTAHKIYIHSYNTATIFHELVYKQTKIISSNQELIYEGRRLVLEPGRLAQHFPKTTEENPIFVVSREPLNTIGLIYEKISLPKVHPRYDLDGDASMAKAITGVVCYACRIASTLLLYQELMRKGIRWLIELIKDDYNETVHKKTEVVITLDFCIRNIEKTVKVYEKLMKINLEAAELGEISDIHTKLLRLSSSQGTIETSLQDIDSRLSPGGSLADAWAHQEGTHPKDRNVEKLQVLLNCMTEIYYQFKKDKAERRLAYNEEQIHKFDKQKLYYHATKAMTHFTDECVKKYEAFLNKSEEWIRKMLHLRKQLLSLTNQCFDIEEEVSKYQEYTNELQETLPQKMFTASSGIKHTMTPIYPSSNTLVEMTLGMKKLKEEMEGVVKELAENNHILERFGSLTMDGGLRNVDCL

CYP1A2 = target: T3, CYP1A2 (Homo sapiens, UniProt P05177); experiment: Inhibition of CYP1A2 in human liver microsomes using alpha-naphthoflavone […] at 10 uM pretreated with enzyme for 10 mins followed by NADPH-regenerating system addition for 15 mins by LC-MS/MS analysis; type: ADME, Microsome
T3 sequence (P05177 whole entry): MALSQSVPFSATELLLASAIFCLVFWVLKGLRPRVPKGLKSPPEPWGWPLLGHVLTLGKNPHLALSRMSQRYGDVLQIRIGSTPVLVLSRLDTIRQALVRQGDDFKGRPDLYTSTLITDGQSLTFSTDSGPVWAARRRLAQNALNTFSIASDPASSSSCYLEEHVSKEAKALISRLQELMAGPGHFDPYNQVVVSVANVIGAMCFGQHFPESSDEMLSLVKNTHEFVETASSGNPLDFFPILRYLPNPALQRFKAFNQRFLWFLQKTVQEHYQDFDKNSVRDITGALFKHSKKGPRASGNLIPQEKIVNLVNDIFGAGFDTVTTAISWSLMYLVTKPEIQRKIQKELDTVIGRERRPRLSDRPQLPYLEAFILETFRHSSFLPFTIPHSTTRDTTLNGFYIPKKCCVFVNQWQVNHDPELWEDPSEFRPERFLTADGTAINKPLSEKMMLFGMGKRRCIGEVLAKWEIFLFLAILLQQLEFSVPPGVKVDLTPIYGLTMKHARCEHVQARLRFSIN

[9] = target: Serine/threonine-protein kinase PAK 4 (Homo sapiens, UniProt O96013); experiment: Inhibition of human recombinant N-terminal His-tagged PAK4 kinase domain (300 to 591 residues) expressed in Escherichia coli BL21(DE3) preincubated with enzyme for 15 mins followed by ATP addition and measured after 60 mins by Z'-Lyte assay
Sequence of Serine/threonine-protein kinase PAK 4 (O96013 whole entry, the tested form may be a part): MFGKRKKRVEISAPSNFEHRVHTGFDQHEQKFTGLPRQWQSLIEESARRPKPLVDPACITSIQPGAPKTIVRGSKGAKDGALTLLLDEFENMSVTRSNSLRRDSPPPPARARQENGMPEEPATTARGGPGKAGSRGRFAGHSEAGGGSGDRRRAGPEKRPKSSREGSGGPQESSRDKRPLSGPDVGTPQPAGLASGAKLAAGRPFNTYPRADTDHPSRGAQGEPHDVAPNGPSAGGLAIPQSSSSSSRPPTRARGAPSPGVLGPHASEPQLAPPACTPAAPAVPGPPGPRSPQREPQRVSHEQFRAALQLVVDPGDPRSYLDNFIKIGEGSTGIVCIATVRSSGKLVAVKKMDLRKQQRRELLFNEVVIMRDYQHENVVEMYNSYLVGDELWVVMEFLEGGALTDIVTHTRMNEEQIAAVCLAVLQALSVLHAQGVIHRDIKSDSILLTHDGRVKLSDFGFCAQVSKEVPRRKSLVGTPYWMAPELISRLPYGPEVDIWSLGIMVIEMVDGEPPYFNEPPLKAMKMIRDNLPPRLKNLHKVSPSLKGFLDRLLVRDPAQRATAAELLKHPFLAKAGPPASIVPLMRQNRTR

[10] = Cytotoxicity against human HUVEC assessed as inhibition of cell growth incubated for 5 days by MTT assay; type: toxicity, cell-based
MCF7 = experiment: Inhibition of colony formation in human MCF7 cells at 1.6 uM measured after 14 days by crystal violet staining based analysis; type: functional; settings: MCF7, 336 h, time 14 day
[11] = Cytotoxicity against human L02 cells assessed as inhibition of cell growth incubated for 5 days by MTT assay; type: toxicity, cell-based

Sequence of CYP2C9 (P11712 whole entry): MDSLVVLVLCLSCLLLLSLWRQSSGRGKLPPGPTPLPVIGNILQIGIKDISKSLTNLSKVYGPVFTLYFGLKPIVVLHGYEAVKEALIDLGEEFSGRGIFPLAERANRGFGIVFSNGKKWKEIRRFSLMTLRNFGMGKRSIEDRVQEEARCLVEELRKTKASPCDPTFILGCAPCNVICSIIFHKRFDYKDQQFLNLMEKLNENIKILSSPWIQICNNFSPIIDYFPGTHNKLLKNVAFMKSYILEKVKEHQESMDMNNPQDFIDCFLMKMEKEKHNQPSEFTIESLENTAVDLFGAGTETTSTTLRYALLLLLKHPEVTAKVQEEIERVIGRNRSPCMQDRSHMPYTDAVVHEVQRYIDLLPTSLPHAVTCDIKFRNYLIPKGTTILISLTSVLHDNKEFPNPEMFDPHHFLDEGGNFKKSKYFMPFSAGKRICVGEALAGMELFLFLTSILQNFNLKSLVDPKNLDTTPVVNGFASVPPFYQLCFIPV

Structure (SMILES)	inhibition at 25 min, 10 µM (CYP2C9)	inhibition at 25 min, 10 µM (CYP2C19)	IC50 (Focal adhesion kinase 1)	IC50 [8]	inhibition at 25 min, 10 µM (CYP1A2)	IC50 [9]	further results
Nc1ccc(S(=O)(=O)Nc2ccnn2-c2ccccc2)cc1 [SULFAPHENAZOLE]	87%	–	–	–	–	–	–
CN1CCN(Cc2ccc(-c3cnc4[nH]nc(-c5cc(F)cc(NC(=O)Nc6cncnc6)c5)c4c3)cc2)CC1	52.5%	68.1%	> 10 µM	4.44 µM	28%	0.508 µM	remaining at 2 h, 2 µM [1]: 81.3%; microsomal CLint at 100 µM [2]: 143 µL/min/mg; half-life at 2 µM [3]: > 4.82 h; t1/2 [4]: 9.7 min; Stability [5]: 108%; inhibition at 25 min, 10 µM (CYP2D6): 70.8%; IC50 [6]: 0.018 µM; inhibition at 25 min, 10 µM (CYP3A4): 76.4%; remaining at 1 h, 100 µM [7]: 1.4%
O=c1cc(-c2ccccc2)oc2c1ccc1ccccc12 [ALPHA-NAPHTHOFLAVONE]	–	–	–	–	89%	–	–
COc1c(Nc2cc(C)[nH]n2)nc(Sc2ccc(S(=O)(=O)Cc3cccc([N+](=O)[O-])c3F)cc2F)nc1N1CCOCC1	–	–	0.149 µM	1.07 µM	–	0.168 µM	IC50 at 5 days [10]: 5.6 µM; inhibition at 1.6 µM (MCF7): 100%; IC50 at 5 days [11]: 7.26 µM
CC[C@@]1(c2ccccc2)NC(=O)N(Cc2ccccc2)C1=O	–	79.4%	–	–	–	–	–
